In brackets after ≈: the same amount, converted by molar mass. Entries after “also recorded” stand apart in the source; their conditions may differ. One block for each compound: values may come before it.
Columns and labels:
[1] = tested on: B. catarrhalis W-0500; experiment: MIC, agar plate dilution method; assay type: cell-based; conditions: Moraxella catarrhalis, W0500, 37° C., 20 hours, read-out: Antimicrobial activity (MIC)
In short: (§1)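 Agar dilution: 5 μl inoculum, ~10^6 CFU/ml, on Sensitivity disk agar + 5% horse blood; 37° C, 20 h. Seed culture in STB; Branhamella precultured on blood agar.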

[2] = tested on: B. catarrhalis W-0506; experiment: MIC, agar plate dilution method; assay type: cell-based; conditions: Moraxella catarrhalis, W0506, 37° C., 20 hours, read-out: Antimicrobial activity (MIC)
In short: as §1

[3] = tested on: E. coli NIHJ JC-2; experiment: MIC, agar plate dilution method; assay type: cell-based; conditions: Escherichia coli, NIHJJC2, 20 h, read-out: Antimicrobial activity (MIC)
In short: as §1

[4] = tested on: E. faecalis W-73; experiment: MIC, agar plate dilution method; assay type: cell-based; conditions: Enterococcus faecalis, W73; E. faecalis W-73; 37° C., 20 hours; read-out: Antimicrobial activity (MIC)
In short: as §1

[5] = tested on: H. influenzae 9334; experiment: MIC, agar plate dilution method; assay type: cell-based; conditions: Haemophilus influenzae; H. influenzae 9334; 37° C., 20 hours; read-out: Antimicrobial activity (MIC)
In short: (§2)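 Agar plate dilution on Sensitivity disk agar with 5% horse blood; 5 μl inoculum of about 10^6 CFU/ml, Branhamella precultured on blood agar. MIC read after 20 hours at 37° C.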

[6] = tested on: K. pneumoniae PC1602; experiment: MIC, agar plate dilution method; assay type: cell-based; conditions: Klebsiella pneumoniae, 37° C., 20 hours, read-out: Antimicrobial activity (MIC)
In short: as §1

[7] = tested on: M. luteus ATCC9341; experiment: MIC, agar plate dilution method; assay type: cell-based; conditions: Micrococcus luteus; M. luteus ATCC9341; 37° C., 20 hours; read-out: Antimicrobial activity (MIC)
In short: as §1

[8] = tested on: M. pneumoniae FH-P24; experiment: MIC, agar plate dilution method; assay type: cell-based; conditions: Mycoplasmoides pneumoniae, FHP24, 20 h, read-out: Antimicrobial activity (MIC)
In short: (§3)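 Using blood-supplemented (5% horse) Sensitivity disk agar, we inoculated 5 μl spots of ~10^6 CFU/ml cultures and scored MIC after incubating 20 hours at 37° C. Broth seed cultures served most strains; Branhamella came from blood agar.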

[9] = tested on: M. pneumoniae FH; experiment: MIC, agar plate dilution method; assay type: cell-based; conditions: Mycoplasmoides pneumoniae, 20 h, read-out: Antimicrobial activity (MIC)
In short: as §1

[10] = tested on: M. pneumoniae Mac; experiment: MIC, agar plate dilution method; assay type: cell-based; conditions: Mycoplasmoides pneumoniae, 20 h, read-out: Antimicrobial activity (MIC)
In short: as §1

[11] = tested on: M. pneumoniae Numata; experiment: MIC, agar plate dilution method; assay type: cell-based; conditions: Mycoplasmoides pneumoniae, 20 h, read-out: Antimicrobial activity (MIC)
In short: as §1

[12] = tested on: S. Pneumoniae Type 1; experiment: MIC, agar plate dilution method; assay type: cell-based; conditions: Streptococcus pneumoniae; S. Pneumoniae Type 1; 37° C., 20 hours; read-out: Antimicrobial activity (MIC)
In short: as §2

[13] = tested on: S. Pyogenes Cook; experiment: MIC, agar plate dilution method; assay type: cell-based; conditions: Streptococcus pyogenes, 37° C., 20 hours, read-out: Antimicrobial activity (MIC)
In short: as §2

[14] = tested on: S. aureus 209P JC-1; experiment: MIC, agar plate dilution method; assay type: cell-based; conditions: Staphylococcus aureus; S. aureus 209P JC-1; 37° C., 20 hours; read-out: Antimicrobial activity (MIC)
In short: as §1

[15] = tested on: S. aureus M126; experiment: MIC, agar plate dilution method; assay type: cell-based; conditions: Staphylococcus aureus; S. aureus M126; 37° C., 20 hours; read-out: Antimicrobial activity (MIC)
In short: as §1

[16] = tested on: S. aureus M133; experiment: MIC, agar plate dilution method; assay type: cell-based; conditions: Staphylococcus aureus, 37° C., 20 hours, read-out: Antimicrobial activity (MIC)
In short: as §1

[17] = tested on: S. aureus MS15009/pMS98; experiment: MIC, agar plate dilution method; assay type: cell-based; conditions: Staphylococcus aureus, MS15009/PMS98, 20 h, read-out: Antimicrobial activity (MIC)
In short: as §3

[18] = tested on: S. aureus MS15009/pMS99; experiment: MIC, agar plate dilution method; assay type: cell-based; conditions: Staphylococcus aureus, MS15009/PMS99, 20 h, read-out: Antimicrobial activity (MIC)
In short: as §3

[19] = tested on: S. aureus MS15026; experiment: MIC, agar plate dilution method; assay type: cell-based; conditions: Staphylococcus aureus, 37° C., 20 hours, read-out: Antimicrobial activity (MIC)
In short: as §1

[20] = tested on: S. aureus MS15027; experiment: MIC, agar plate dilution method; assay type: cell-based; conditions: Staphylococcus aureus, 37° C., 20 hours, read-out: Antimicrobial activity (MIC)
In short: as §1

[21] = tested on: S. epidermidis ATCC14990; experiment: MIC, agar plate dilution method; assay type: cell-based; conditions: Staphylococcus epidermidis, 37° C., 20 hours, read-out: Antimicrobial activity (MIC)
In short: as §1

[22] = tested on: S. pneumoniae IP692; experiment: MIC, agar plate dilution method; assay type: cell-based; conditions: Streptococcus pneumoniae; S. pneumoniae IP692; 37° C., 20 hours; read-out: Antimicrobial activity (MIC)
In short: as §2

[23] = tested on: Gram-positive bacteria and Mycoplasma; experiment: antimicrobial activity in vitro (summary in words); assay type: cell-based; conditions: from Table 1
In short: as §1

[24] = tested on: Mycoplasma; experiment: anti-Mycoplasma activity (summary in words); assay type: cell-based
Description: Antimicrobial activities of the compounds of the present invention were determined by measuring minimum inhibitory concentration (MIC). Minimum inhibitory concentration was determined by the agar plate dilution method in the following manner.
Test strains were subjected to seed culture using Sensitivity test broth (STB, Nissui Pharmaceutical) except that the strains belonging to the genus Streptococcus, Branhamella and Haemophilus were cultured on blood agar plate. A 5 μl portion of cell suspension of the test strains having about 10^6 CFU/ml was inoculated into Sensitivity disk agar (SDA, Nissui Pharmaceutical) supplemented with 5% horse blood and incubated at 37° C. for 20 hours. Then, MIC was measured. For comparison, MDM and leucomycin A7 (LM-A7) was also tested.

[25] = concentration in serum after oral administration to mice, bioassay; assay type: in vivo, mice (Jcl:ICR); conditions: for Cmax: mouse, serum, 200 mg/kg, M. luteus bioassay, read-out: maximum concentration in the serum
In short: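 Male 4-week-old Jcl:ICR mice dosed orally with compound suspended in 0.2% CMC (4 mg/ml, 1 ml; another compound at 200 mg/kg). Serum sampled 30-360 min (n=2), diluted 1:1 in CH3CN-phosphate pH 7.0; concentration measured by M. luteus ATCC9341 agar-well bioassay (32 °C, 18 h) against a calibration curve.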

[26] = recovery in urine after oral administration to mice, bioassay; assay type: in vivo; conditions: for dose excreted at 24 h: mouse, 200 mg/kg oral (compound (3)), urine 4 and 24 hours
Description: Subsequently, 200 mg/kg of the compound (3) was orally administered to three mice in the same manner as described above.
The three mice were put in a metabolic cage MM type (Sugiyamagen Company, Tokyo, Japan) and urine was collected 4 and 24 hours after the administration of the test compound. The collected urine was filtered through a filter having a pore size of 0.45 μm (Millipore) and was mixed with an equivalent volume of 50% CH3CN-50 mM phosphate (1:1 by volume) buffer (pH 6.5) to serve as a urine sample. The bioassay was carried out in the same manner as described above to determine the concentration of the test compound in the urine sample. The recovering in the urine was calculated according to the following equation. [formula]

[27] = metabolism in plasma; assay type: in vitro ADME, rat; conditions: no free hydroxyl group in the neutral sugar moiety formed
Description: Each test compound and 50 μl of a methanol solution (10,000 γ) were added to 950 μl of thawed rat plasma and the resulting mixture was incubated at 37° C. for 24 hours. After completion of the incubation, a 20 μl portion of the mixture was added to 980 μl of 0.05M phosphate buffer (pH 7.6). A 20 μl portion of the sample solution was used to measure antimicrobial activity against M. luteus. Separately, the calibration curve was prepared by using a methanol solution containing each test compound. The starting activity of each compound in the plasma was referred to as 100%.

[28] = tested on: M. luteus
Description: Each test compound and 50 μl of a methanol solution (10,000 γ) were added to 950 μl of thawed rat plasma and the resulting mixture was incubated at 37° C. for 24 hours. After completion of the incubation, a 20 μl portion of the mixture was added to 980 μl of 0.05M phosphate buffer (pH 7.6). A 20 μl portion of the sample solution was used to measure antimicrobial activity against M. luteus.

[29] = Yakugaku Zasshi, 102 (8), 781 (1982); cited from earlier work
[30] = tested on: esterase; conditions: in vivo; cited from earlier work
[31] = oral, man and dog; cited from earlier work
[32] = Journal of Antibiotics, 36 (4), 442 (1983); cited from earlier work

Compound: CCC(=O)O[C@@H]1CC(=O)O[C@H](C)C/C=C/C=C/[C@H](O)[C@H](C)C[C@H](CC=O)[C@H](O[C@@H]2O[C@H](C)[C@@H](O[C@H]3C[C@@](C)(OC)[C@@H](OCCC(C)C)[C@H](C)O3)[C@H](N(C)C)[C@H]2O)[C@H]1OC [(3), 4"-O-depropionyl-4"-O-isoamyl-3"-O-methylmidecamycin A1]
MIC [1]: 0.78 µg/mL (≈ 0.926 µM) | MIC [2]: 1.56 µg/mL (≈ 1.85 µM) | MIC [3]: > 100 µg/mL | MIC [4]: 3.13 µg/mL (≈ 3.72 µM) | MIC [5]: 6.25 µg/mL (≈ 7.42 µM) | MIC [6]: > 100 µg/mL | MIC [7]: 0.05 µg/mL (≈ 0.0594 µM) | MIC [8]: 0.025 µg/mL (≈ 0.0297 µM) | MIC [9]: 1.56 µg/mL (≈ 1.85 µM) | MIC [10]: 0.05 µg/mL (≈ 0.0594 µM) | MIC [11]: 0.025 µg/mL (≈ 0.0297 µM) | MIC [12]: 0.2 µg/mL (≈ 0.238 µM) | MIC [13]: 0.1 µg/mL (≈ 0.119 µM) | MIC [14]: 0.2 µg/mL (≈ 0.238 µM) | MIC [15]: > 100 µg/mL | MIC [16]: 0.78 µg/mL (≈ 0.926 µM) | MIC [17]: 0.78 µg/mL (≈ 0.926 µM) | MIC [18]: > 100 µg/mL | MIC [19]: > 100 µg/mL | MIC [20]: 0.78 µg/mL (≈ 0.926 µM) | MIC [21]: 1.56 µg/mL (≈ 1.85 µM) | MIC [22]: 0.1 µg/mL (≈ 0.119 µM) | antimicrobial activities compared with MDM [23]: comparable to, or even exceeding, that of MDM | antimicrobial activities on Gram-positive bacteria and Mycoplasma [23]: strong antimicrobial activities | anti-Mycoplasma activity [24]: practically effective anti-Mycoplasma activity | pharmacokinetics in mice (in words) [25]: excellent pharmacokinetics | Cmax [25]: 11300 ng/mL | maximum concentration in the serum, comparison in words ([25]; versus clarythromycin (CAM) or other 16-membered macrolides): comparable to that of clarythromycin (CAM); also recorded: considered the highest one among 16-membered macrolide compounds having a free hydroxyl group at the 9-position | stability in the living mouse body (sustaining the antimicrobial activity) [26]: highly stable | recovery in the urine compared with CAM ([26]; 200 mg/kg oral): slightly lower than that of CAM | dose excreted at 24 h [26]: 20% | extent of metabolism [27]: hardly metabolized | degree of loss of the antimicrobial activity in the plasma compared with MOM [28]: lower than that of MOM

Cmax [25]: 6200 ng/mL | dose excreted at 24 h [26]: < 2%
Compound: CCC(=O)O[C@@H]1CC(=O)O[C@H](C)C/C=C/C=C/[C@H](OC(C)=O)[C@H](C)C[C@H](CC=O)[C@H](O[C@@H]2O[C@H](C)[C@@H](O[C@H]3C[C@@](C)(OC(C)=O)[C@@H](OC(=O)CC)[C@H](C)O3)[C@H](N(C)C)[C@H]2O)[C@H]1OC [MOM, miokamycin, reference compound]
metabolic pattern of the mycarose moiety in human compared with rat [29]: almost the same as that in rat | metabolism of the two acyl groups in the neutral sugar moiety [30]: removed with esterase in vivo

Cmax [25]: 2900 ng/mL | dose excreted at 24 h [26]: < 2%
Compound: CCCC(=O)O[C@H]1[C@H](C)O[C@@H](O[C@H]2[C@H](N(C)C)[C@@H](O)[C@H](O[C@H]3[C@@H](CC=O)C[C@@H](C)[C@@H](O)/C=C/C=C/C[C@@H](C)OC(=O)C[C@@H](O)[C@@H]3OC)O[C@@H]2C)C[C@@]1(C)OC(=O)CC [RKM, rokitamycin, reference compound]
major metabolite with a cleaved lactone ring [31]: no compound with a cleaved lactone ring has been reported as a major metabolite | metabolism of the two acyl groups in the neutral sugar moiety [30]: removed with esterase in vivo

Compound: CO[C@@H]1[C@@H](O[C@@H]2O[C@H](C)[C@@H](O[C@H]3C[C@@](C)(O)[C@@H](O)[C@H](C)O3)[C@H](N(C)C)[C@H]2O)[C@@H](CC=O)C[C@@H](C)[C@@H](O[C@H]2CC[C@H](N(C)C)[C@@H](C)O2)/C=C/C=C/C[C@@H](C)OC(=O)C[C@H]1OC(C)=O [spiramycin II]
sustained antimicrobial activity in rat plasma compared with spiramycin I [32]: shows a sustained antimicrobial activity in rat plasma

— patent US5407918A, “16-membered macrolide derivatives and process for producing the same” (Meiji Seika Kaisha, Ltd., priority 1992, dated 1995)
